Where only a bound is given, the exact number is not on record here.

We go through twelve compounds from ChEMBL document CHEMBL1138445, “Design and synthesis of potent inhibitors of cholesteryl ester transfer protein (CETP) exploiting a 1,2,3,4-tetrahydroquinoline platform” (Bioorg Med Chem Lett, 2009).

The nature of data set [1]: Cmax in Sprague-Dawley rat at 10 mg/kg, po. It is filed as ADME, organism-based. The note with it: in vivo. More on the design: dose 10 mg/kg, route oral.
Data set [2] deals with Cytochrome P450 3A4 (Homo sapiens, UniProt P08684). Briefly: Inhibition of CYP3A4 from human liver microsomes. It counts as ADME. Background: Liver microsomes are vesicles of endoplasmic reticulum, rich in cytochrome P450 enzymes.
Data set [3] can be described thus: AUC in Sprague-Dawley rat at 10 mg/kg, po. It counts as ADME, organism-based. More on the design: dose 10 mg/kg, route oral. The conditions noted are these: plasma.
Data set [4] has as its target Cytochrome P450 2E1 (Homo sapiens, UniProt P05181). Briefly: Inhibition of CYP2E1 from human liver microsomes. It counts as ADME.
Data set [5] in a line: Half life in Sprague-Dawley rat at 10 mg/kg, po. It is filed as ADME, organism-based. Further details: dose 10 mg/kg, route oral; call rule not given here. The conditions noted are these: in vivo.
A short description of data set [6]: Tmax in Sprague-Dawley rat at 10 mg/kg, po. It counts as ADME, organism-based. Further details: dose 10 mg/kg, route oral. The note with it: in vivo.
Data set [7] can be described thus: AUC in Sprague-Dawley rat at 2 mg/kg, iv. It counts as ADME, organism-based. Further details: dose 2 mg/kg, route intravenous. The note with it: plasma.
The target of data set [8] is Cytochrome P450 2C19 (Homo sapiens, UniProt P33261). The data set is described as follows: Inhibition of CYP2C19 from human liver microsomes. It counts as ADME.
Data set [9] addresses Cytochrome P450 2C9 (Homo sapiens, UniProt P11712). The data set is described as follows: Inhibition of CYP2C9 from human liver microsomes. It counts as ADME.
Data set [10] can be described thus: Metabolic stability in human liver microsomes assessed as half life. It is filed as ADME, Microsome.
Data set [11] can be described thus: Plasma clearance in Sprague-Dawley rat at 2 mg/kg, iv. It counts as ADME, organism-based. Further details: dose 2 mg/kg, route intravenous.
The nature of data set [12]: Oral bioavailability in Sprague-Dawley rat at 10 mg/kg. It is filed as ADME, organism-based. The conditions noted are these: in vivo.
For data set [13], the target named is Cytochrome P450 2D6 (Homo sapiens, UniProt P10635). The data set is described as follows: Inhibition of CYP2D6 from human liver microsomes. It counts as ADME.
Data set [14] concerns the target T1, Cytochrome P450 1A2 (Homo sapiens, UniProt P05177).
T1 sequence (P05177 whole entry): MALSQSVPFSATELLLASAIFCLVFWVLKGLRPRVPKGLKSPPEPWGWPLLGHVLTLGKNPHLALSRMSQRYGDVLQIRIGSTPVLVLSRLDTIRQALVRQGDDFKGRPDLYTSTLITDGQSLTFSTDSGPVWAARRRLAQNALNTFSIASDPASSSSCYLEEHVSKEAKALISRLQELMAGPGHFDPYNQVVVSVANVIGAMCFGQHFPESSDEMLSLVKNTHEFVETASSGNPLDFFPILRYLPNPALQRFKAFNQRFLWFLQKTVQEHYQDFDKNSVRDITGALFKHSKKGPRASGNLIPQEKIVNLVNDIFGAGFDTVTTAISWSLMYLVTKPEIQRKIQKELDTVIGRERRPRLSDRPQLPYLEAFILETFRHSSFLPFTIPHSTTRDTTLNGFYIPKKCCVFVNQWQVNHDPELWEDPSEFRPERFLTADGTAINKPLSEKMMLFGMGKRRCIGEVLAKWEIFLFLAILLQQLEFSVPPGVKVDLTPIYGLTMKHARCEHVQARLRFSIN
Briefly: Inhibition of CYP1A2 from human liver microsomes. It counts as ADME.

Data set [15] can be described thus: Volume of distribution at steady state in Sprague-Dawley rat at 2 mg/kg, iv. Further details: dose 2 mg/kg, route intravenous. It counts as ADME, organism-based. The conditions noted are these: in vivo, read-out: Vdss.
Data set [16] concerns the target T2, Cholesteryl ester transfer protein (Homo sapiens) (UniProt P11597).
T2 sequence (whole entry): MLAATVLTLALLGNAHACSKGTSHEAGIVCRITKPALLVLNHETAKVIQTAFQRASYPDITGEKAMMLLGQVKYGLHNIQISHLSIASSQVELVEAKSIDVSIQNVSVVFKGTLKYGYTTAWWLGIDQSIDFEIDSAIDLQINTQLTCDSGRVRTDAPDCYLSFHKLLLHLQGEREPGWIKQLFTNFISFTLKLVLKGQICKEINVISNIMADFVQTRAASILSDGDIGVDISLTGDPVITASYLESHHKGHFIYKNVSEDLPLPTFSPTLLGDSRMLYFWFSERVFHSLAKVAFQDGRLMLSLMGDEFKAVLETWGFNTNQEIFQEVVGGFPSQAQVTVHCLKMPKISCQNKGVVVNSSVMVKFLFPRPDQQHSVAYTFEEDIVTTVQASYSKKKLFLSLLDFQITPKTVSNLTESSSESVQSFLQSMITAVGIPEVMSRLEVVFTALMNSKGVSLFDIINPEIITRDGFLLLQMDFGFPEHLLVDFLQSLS
Briefly: Inhibition of human plasma derived CETP relative to control. More on the design: concentration or dose not given beside the values. The conditions noted are these: concentration not given here.

A short description of data set [17]: Cmax in Sprague-Dawley rat at 2 mg/kg, iv. It is filed as ADME, organism-based. Further details: dose 2 mg/kg, route intravenous. The conditions noted are these: in vivo.
In data set [18] the target is T3, Cholesteryl ester transfer protein (Homo sapiens, UniProt P11597).
T3 sequence (P11597 whole entry): T2 sequence (whole entry)
Briefly: Inhibition of human plasma derived CETP. It is filed as cell-free.

Data set [19] concerns the target T4, Cytochrome P450 2A6 (Homo sapiens, UniProt P11509).
T4 sequence (P11509 whole entry): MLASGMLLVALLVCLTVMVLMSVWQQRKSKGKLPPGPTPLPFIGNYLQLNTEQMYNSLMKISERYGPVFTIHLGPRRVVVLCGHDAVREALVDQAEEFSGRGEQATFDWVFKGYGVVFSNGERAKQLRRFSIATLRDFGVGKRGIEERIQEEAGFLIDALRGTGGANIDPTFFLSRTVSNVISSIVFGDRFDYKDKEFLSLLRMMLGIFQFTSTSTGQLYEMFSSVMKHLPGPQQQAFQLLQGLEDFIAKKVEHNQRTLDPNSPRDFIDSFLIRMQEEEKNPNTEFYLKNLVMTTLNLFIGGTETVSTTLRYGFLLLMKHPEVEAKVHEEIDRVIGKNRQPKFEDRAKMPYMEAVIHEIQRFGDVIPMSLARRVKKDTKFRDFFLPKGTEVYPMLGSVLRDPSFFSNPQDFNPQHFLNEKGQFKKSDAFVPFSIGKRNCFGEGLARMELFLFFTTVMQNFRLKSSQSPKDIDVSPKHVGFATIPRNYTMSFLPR
Briefly: Inhibition of CYP2A6 from human liver microsomes. It counts as ADME.

The nature of data set [20]: Permeability across human Caco-2 cell. It counts as ADME, cell-based. The note with it: read-out: permeability. (Caco-2 cells form a polarised layer with tight junctions and transporters.)
A short description of data set [21]: Half life in Sprague-Dawley rat at 2 mg/kg, iv. The note with it: in vivo. Further details: dose 2 mg/kg, route intravenous. It counts as ADME, organism-based.

Chain of Cytochrome P450 2C9 (P11712 whole entry): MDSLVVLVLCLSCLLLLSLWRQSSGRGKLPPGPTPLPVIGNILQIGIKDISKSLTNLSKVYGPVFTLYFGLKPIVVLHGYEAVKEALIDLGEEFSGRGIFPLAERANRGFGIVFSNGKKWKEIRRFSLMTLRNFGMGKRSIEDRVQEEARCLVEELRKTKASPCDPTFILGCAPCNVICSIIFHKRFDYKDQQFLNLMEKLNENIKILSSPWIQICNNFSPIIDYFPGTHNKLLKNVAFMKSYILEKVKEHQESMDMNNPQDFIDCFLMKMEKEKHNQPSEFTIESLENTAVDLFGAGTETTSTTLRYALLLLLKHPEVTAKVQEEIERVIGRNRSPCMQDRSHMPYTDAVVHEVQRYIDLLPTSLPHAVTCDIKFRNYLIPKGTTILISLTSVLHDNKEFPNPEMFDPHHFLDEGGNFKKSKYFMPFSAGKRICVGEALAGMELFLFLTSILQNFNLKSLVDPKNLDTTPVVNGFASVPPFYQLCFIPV
Chain of Cytochrome P450 2D6 (P10635 whole entry): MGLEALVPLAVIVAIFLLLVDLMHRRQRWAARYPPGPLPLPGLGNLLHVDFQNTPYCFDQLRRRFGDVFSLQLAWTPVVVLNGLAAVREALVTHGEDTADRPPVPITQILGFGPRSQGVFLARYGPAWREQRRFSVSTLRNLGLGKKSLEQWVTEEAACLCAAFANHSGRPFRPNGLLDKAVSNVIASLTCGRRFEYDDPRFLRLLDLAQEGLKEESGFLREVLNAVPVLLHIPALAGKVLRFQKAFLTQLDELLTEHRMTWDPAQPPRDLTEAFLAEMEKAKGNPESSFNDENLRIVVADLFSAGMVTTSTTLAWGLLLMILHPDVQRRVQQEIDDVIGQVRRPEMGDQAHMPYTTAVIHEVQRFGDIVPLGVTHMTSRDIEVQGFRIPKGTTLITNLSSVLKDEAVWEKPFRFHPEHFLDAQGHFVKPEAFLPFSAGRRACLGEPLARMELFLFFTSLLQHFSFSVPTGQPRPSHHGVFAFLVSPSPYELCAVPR
Chain of Cytochrome P450 2C19 (P33261 whole entry): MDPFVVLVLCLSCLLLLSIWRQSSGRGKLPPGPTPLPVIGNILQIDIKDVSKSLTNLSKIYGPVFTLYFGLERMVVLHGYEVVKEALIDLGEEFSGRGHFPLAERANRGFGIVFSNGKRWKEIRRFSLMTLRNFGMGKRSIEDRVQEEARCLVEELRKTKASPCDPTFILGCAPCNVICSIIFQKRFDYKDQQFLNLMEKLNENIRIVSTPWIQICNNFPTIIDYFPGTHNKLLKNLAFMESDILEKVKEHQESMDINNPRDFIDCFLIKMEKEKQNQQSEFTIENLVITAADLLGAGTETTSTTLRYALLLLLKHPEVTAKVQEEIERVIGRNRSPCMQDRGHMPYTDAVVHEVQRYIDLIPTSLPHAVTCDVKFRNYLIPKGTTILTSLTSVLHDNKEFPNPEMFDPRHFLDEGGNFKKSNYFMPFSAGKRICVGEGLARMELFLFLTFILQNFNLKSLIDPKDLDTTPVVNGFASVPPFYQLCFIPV
Chain of Cytochrome P450 3A4 (P08684 whole entry): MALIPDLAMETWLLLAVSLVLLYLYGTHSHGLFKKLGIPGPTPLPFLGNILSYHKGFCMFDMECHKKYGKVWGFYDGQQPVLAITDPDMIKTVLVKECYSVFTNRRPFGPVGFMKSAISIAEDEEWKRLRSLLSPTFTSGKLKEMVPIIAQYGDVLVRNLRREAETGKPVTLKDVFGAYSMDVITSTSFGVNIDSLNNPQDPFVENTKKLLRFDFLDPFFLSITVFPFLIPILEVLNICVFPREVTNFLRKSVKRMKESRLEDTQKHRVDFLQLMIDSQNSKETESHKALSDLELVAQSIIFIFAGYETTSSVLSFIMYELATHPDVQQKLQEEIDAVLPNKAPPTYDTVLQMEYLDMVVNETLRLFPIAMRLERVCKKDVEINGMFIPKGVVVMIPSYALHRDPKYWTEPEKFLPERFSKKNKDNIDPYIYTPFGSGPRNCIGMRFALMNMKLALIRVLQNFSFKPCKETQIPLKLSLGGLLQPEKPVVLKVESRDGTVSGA
Chain of Cytochrome P450 2E1 (P05181 whole entry): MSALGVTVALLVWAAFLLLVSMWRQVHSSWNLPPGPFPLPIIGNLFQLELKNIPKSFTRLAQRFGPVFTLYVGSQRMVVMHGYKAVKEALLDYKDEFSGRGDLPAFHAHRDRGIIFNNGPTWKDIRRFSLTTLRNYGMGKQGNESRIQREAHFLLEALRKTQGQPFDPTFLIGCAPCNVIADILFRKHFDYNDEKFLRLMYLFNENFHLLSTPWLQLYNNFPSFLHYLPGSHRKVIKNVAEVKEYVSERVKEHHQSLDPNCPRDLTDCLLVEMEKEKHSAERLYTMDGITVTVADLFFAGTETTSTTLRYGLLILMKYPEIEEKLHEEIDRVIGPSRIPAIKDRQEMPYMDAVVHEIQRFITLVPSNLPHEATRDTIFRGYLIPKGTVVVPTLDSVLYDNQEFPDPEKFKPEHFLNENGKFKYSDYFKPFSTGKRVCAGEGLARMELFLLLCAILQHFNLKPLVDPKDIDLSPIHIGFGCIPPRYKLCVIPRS

Usually Cmax stands for the highest concentration seen after dosing. Broadly, the AUC is the area under the concentration-time curve, a measure of exposure. In general, half-life refers to how long it takes for the measured level to halve. As usually defined, the Tmax is the time at which the peak concentration occurs. As usually defined, the clearance is a measure of how efficiently the substance is removed, as volume per time. One may read the bioavailability as dose-corrected exposure relative to a reference, in per cent. The term inhibition denotes the share of the control response that was lost under treatment. What is called IC50 is the point on the concentration scale where inhibition reaches its midpoint. On to `O[C@@H](CN1c2cccc(-c3cccc(OC(F)(F)F)c3)c2CC[C@@H]1c1cccc(OC(F)(F)F)c1)C(F)(F)F` [TETRAHYDROQUINOLINE A], for which the Cmax is 950 ng/mL in [1] and 31400 ng/mL in data set [17]. Further, the Activity result in data set [2], in [4], in data set [8], in [9], in [13] and in data set [14] was “Not Active” throughout. In addition, the Activity result in data set [19] is listed as “Not Active”. Moreover, the figures for the AUC in data set [3] and in [7] were 31300 ng·h/mL and 18900 ng·h/mL, respectively. Besides, the half-life in [5] was 1680 min; in data set [10], more than 128 min; in data set [21] it was 1040 min. Besides, the Tmax in [6] was found to be 6 h. The clearance in [11] is 1.8 mL/min/kg. The bioavailability in data set [12] worked out at 31%. Further, the Vd in data set [15] amounted to 0.36 L/kg. In data set [16], this compound gave an inhibition of 85%. The compound further came in with a half-inhibitory concentration (IC50) in [18] of 39 nM. Besides, the Papp in [20] stood at 4.7 ×10⁻⁶ cm/s.
In turn, `OC(CN1c2cccc(-c3cccs3)c2CCC1c1cccc(OC(F)(F)C(F)F)c1)C(F)(F)F` (single isomer, unassigned; diastereomer 1) gave an inhibition in data set [16] of 63%. Besides, in data set [18], it took 317 nM to reach half-maximal inhibition (IC50).
On to `N#Cc1cccc(-c2cccc3c2CCC(c2cccc(OC(F)(F)C(F)F)c2)N3CC(O)C(F)(F)F)c1` (single isomer, unassigned; diastereomer 1), for which the IC50 in data set [18] was 235 nM.
The compound `OC(CN1c2cccc(-c3cccc(Cl)c3Cl)c2CCC1c1cccc(OC(F)(F)C(F)F)c1)C(F)(F)F` (single isomer, unassigned; diastereomer 2) came in with a half-maximal inhibitory concentration (IC50) in [18] of 400 nM.
Turning to `C[C@@H](O)CN1c2cccc(-c3cccc(OC(F)(F)F)c3)c2CC[C@@H]1c1cccc(OC(F)(F)F)c1`, in [16], the inhibition is 68%. In data set [18], this compound gave an IC50 of 125 nM.
In the same order, the values of `OC(CN1c2cccc(-c3cccnc3)c2CCC1c1cccc(OC(F)(F)C(F)F)c1)C(F)(F)F` (single isomer, unassigned; diastereomer 1) are 47% and more than 3000 nM.
For `OC(CN1c2cccc(-c3ccc(OC(F)(F)F)cc3)c2CCC1c1cccc(OC(F)(F)C(F)F)c1)C(F)(F)F` (single isomer, unassigned; diastereomer 1), in that order: 85% and 500 nM.
In the case of `OC(CN1c2cccc(-c3cccc(OC(F)(F)F)c3)c2CCC1c1cccc(OC(F)(F)C(F)F)c1)C(F)(F)F` (single isomer, unassigned; 19), in data set [18], half-maximal inhibition (IC50) was put at 33 nM.
Compound `O[C@H](CN1c2cccc(-c3cccc(OC(F)(F)F)c3)c2CC[C@@H]1c1cccc(OC(F)(F)F)c1)C(F)(F)F` [TETRAHYDROQUINOLINE B] had an inhibition in data set [16] of 62%. This compound also registered an IC50 in data set [18] of more than 3000 nM.
Compound `CC(C)c1cccc(-c2cccc3c2CCC(c2cccc(OC(F)(F)C(F)F)c2)N3CC(O)C(F)(F)F)c1` (single isomer, unassigned; diastereomer 1) yielded an inhibition in [16] of 63%. Moreover, in data set [18], the IC50 came to 277 nM.
`CC(C)Oc1cccc(-c2cccc3c2CCC(c2cccc(OC(F)(F)C(F)F)c2)N3CC(O)C(F)(F)F)c1` (centres undefined) displayed an inhibition in data set [16] of 55%. In addition, the IC50 in data set [18] was 345 nM.
On to `OC(CN1c2cccc(-c3cccc(OC(F)(F)F)c3)c2CCC1c1cccc(OC(F)(F)F)c1)C(F)(F)F` (stereo in doubt; 52), for which, in [18], half-maximal inhibition (IC50) was put at 125 nM.
